# What was measured:
# NLRP3 inflammasome [1] = test: Inflammasome activation by ATP stimulation in PMA-differentiated, LPS-treated THP1-Null cells (Test 1); format: cell-based, human; details: ATP 5 mM stimulation, arctigenin at concentrations of 10 μM and higher, 1 h pretreatment, vs Control without arctigenin, Dunnett's test
# Description: (§1) THP1-Null cells (Invivogen) or THP-1 cells (JCRB Cell Bank), which are NLRP3 inflammasome reporter cell lines derived from human monocytic cells, were cultured in a RPMI medium containing 10% FBS and 4.5% glucose (hereinafter referred to as a THP1 culture medium, SIGMA). The cells were treated with 500 nM PMA (SIGMA) for 3 hours to differentiate the cells into macrophages, and the cells were washed with PBS twice and then used for the following experiment.
# (§2) The THP1-Null cells or the THP-1 cells after the induction of differentiation were suspended in the THP1 culture medium at 1.0×10^6 cells/mL and seeded in a 96-well microplate at 180 μL per well (1.8×10^5 cells/well). […] The IL-1β concentrations of the culture supernatants were measured using IL-1β reporter cell line HEKBlue (trademark) IL-18/IL-1β cells (Invivogen) or the ELISA method. The caspase-1 concentrations of the culture supernatants were also measured by the ELISA method.
# (§3) HEK Blue (trademark) IL-18/IL-1β cells were used for measuring the IL-1β concentrations of the medium supernatants collected after the ATP treatment. […] The absorbance of each well at 655 nm was measured using a microplate reader, and the IL-1β concentration was measured. […]
# (§4) Caspase-1 was measured following the TDS of Quantikine (registered trademark) ELISA Human Caspase-1/ICE (R&D systems (trademark)). […]
# NLRP3 inflammasome [2] = test: Inflammasome activation by palmitic acid stimulation in PMA-differentiated, LPS-treated THP1-Null cells (Test 2); format: cell-based, human; details: palmitic acid 500 μM stimulation, 12 h, arctigenin 500 nM pretreatment, vs Control, Student's t-test, ELISA
# Description: as §1, §2, §3, §4
# NLRP3 inflammasome [3] = test: Inflammasome activation by MSU stimulation in PMA-differentiated, LPS-treated THP1-Null cells (Test 3); format: cell-based, human; details: MSU 100 μg/mL stimulation, 3 h, vs Control, ELISA
# Description: as §1, §2, §3, §4
# AIM2 inflammasome = test: Inflammasome activation by Poly(dA:dT) stimulation in PMA-differentiated, LPS-treated THP-1 cells (Test 4); format: cell-based, human; details: Poly(dA:dT)/LyoVec 5 μg/mL stimulation, 8 h, vs Control, Student's t-test, ELISA
# Description: as §1, §2, §3, §4
# [4] = stated as a fact, no test described; cited from earlier work
compound,measurement,setting,value
COc1cc(C[C@H]2C(=O)OC[C@@H]2Cc2ccc(OC)c(OC)c2)ccc1O [arctigenin],caspase-1 amount,"NLRP3 inflammasome [1]; ELISA, FIG. 2",decreased with significance
same,released IL-1β amount,"NLRP3 inflammasome [1]; HEK Blue IL-18/IL-1β reporter cells, FIG. 1",decreased with significance
same,released IL-1β amount,NLRP3 inflammasome [2]; FIG. 3,decreased with significance
same,caspase-1 amount,NLRP3 inflammasome [2]; FIG. 4,decreased with significance
same,released IL-1β amount,"NLRP3 inflammasome [3]; arctigenin at concentrations of 10 μM and higher, Dunnett's test, FIG. 5",decreased with significance
same,caspase-1 amount,"NLRP3 inflammasome [3]; arctigenin pretreatment, FIG. 6",decreased concentration-dependently
same,caspase-1 amount,"AIM2 inflammasome; arctigenin 250 nM pretreatment, FIG. 8",decreased with significance
same,released IL-1β amount,"AIM2 inflammasome; arctigenin 500 nM pretreatment, FIG. 7",decreased with significance
same,solubility in water,[4],insoluble in water

# Source: patent publication US11376235B2, “Inhibitor of inflammasome activation” (KRACIE HOLDINGS, LTD., priority 2016, dated 2022)
